Measured values: US8791132B2, “Compounds and methods for treatment of hypertension” (Medivation Technologies, Inc., priority 2011, dated 2014)

Columns and labels:
[1] = molecular target: T1, human recombinant adrenergic α2B receptor (Homo sapiens, UniProt P18089); assay: Radioligand binding, adrenergic α2B ([3H]Rauwolscine); details: for Percentage inhibition of ligand binding, Adrenergic α2B / inhibition at 0.03 µM: compound at 0.03 μM, [3H]Rauwolscine, repeat assays, each datapoint shown; for Percentage inhibition of ligand binding, Adrenergic α2B: 0.03 µM; for inhibition at 0.03 µM: read-out: Percentage inhibition of ligand binding, Adrenergic α2B; for Ki: read-out: Ki α2B
T1 construct: expressed in transfected cells; host or cells: CHO-K1
T1 sequence (P18089 1-450): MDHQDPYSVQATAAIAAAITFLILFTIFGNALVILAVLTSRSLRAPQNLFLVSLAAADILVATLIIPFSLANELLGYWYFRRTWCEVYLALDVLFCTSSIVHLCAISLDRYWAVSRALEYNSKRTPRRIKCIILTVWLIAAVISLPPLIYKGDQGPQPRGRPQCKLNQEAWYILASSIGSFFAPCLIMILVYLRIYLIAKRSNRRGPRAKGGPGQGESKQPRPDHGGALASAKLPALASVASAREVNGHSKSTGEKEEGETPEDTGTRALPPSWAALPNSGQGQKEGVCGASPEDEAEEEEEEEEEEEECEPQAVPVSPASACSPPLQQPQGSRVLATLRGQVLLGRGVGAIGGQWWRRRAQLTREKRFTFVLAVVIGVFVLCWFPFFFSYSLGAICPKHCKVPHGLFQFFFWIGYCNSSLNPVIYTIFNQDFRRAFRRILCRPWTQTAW
Summary of the method: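 Values are percent inhibition of specific radioligand binding. The receptor, expressed in CHO-K1 cells, was exposed to 2.5 nM [3H]Rauwolscine at 25° C for 60 min, with 10 μM Prazosin marking non-specific binding.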

[2] = molecular target: T2, human recombinant adrenergic α2A receptor (Homo sapiens, UniProt P08913); assay: Radioligand binding, adrenergic α2A ([3H]MK-912); details: for Percentage inhibition of ligand binding, Adrenergic α2A / inhibition at 0.1 µM: compound at 0.1 μM, [3H]MK-912, repeat assays, each datapoint shown; for inhibition at 0.1 µM: read-out: Percentage inhibition of ligand binding, Adrenergic α2A
T2 construct: expressed in transfected cells; host or cells: insect Sf9 cells
T2 sequence (P08913 1-465): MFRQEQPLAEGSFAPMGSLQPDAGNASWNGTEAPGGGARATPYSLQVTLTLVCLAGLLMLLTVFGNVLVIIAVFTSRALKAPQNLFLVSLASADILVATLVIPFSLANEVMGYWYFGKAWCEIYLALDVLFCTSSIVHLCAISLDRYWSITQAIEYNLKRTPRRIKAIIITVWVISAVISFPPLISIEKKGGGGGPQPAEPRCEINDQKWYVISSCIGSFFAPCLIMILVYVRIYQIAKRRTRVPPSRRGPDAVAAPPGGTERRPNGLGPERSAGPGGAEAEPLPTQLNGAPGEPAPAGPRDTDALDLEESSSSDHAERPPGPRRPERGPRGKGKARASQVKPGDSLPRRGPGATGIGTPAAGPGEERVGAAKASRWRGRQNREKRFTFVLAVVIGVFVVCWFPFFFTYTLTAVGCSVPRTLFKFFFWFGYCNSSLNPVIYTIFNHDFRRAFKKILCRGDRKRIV
Summary of the method: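 In 50 mM Tris-HCl (pH 7.4) containing 12.5 mM MgCl2 and 2 mM EDTA, Sf9-expressed receptor was exposed to test compound plus 1 nM [3H]MK-912 at 25 °C for 60 min. Specific binding, corrected using 10 μM WB-4101, was quantified by filtration and counting and expressed as percent inhibition.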

[3] = molecular target: T3, rat adrenergic α1B receptor (Rattus norvegicus, UniProt P15823); assay: Radioligand binding, adrenergic α1B ([3H]Prazosin); details: [3H]Prazosin, repeat assays, each datapoint shown; for inhibition at 0.1 µM / Percentage inhibition of ligand binding, Adrenergic α1B: compound at 0.1 μM; for inhibition at 0.1 µM / inhibition at 0.03 µM: read-out: Percentage inhibition of ligand binding, Adrenergic α1B; for Percentage inhibition of ligand binding, Adrenergic α1B: 0.1 µM; for inhibition at 0.03 µM: compound at 0.03 μM
T3 construct: rat adrenergic α1B receptor obtained from Wistar Rat liver; from tissue; host or cells: Wistar rat liver
T3 sequence (P15823 1-515): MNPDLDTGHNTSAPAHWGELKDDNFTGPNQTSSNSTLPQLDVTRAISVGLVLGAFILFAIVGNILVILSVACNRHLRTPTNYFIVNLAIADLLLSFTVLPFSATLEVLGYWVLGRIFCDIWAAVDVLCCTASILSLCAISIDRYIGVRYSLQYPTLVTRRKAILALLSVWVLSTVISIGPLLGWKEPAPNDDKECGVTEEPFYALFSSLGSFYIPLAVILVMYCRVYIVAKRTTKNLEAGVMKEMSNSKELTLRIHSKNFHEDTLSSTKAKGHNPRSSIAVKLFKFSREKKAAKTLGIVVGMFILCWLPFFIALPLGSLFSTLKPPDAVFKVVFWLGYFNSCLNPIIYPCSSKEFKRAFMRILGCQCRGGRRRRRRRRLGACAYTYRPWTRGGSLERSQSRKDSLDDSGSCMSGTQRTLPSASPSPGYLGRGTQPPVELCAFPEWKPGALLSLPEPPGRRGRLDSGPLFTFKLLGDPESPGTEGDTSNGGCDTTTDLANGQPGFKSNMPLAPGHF
Method: To evaluate in radioligand binding assays the activity of compounds of the invention, rat adrenergic α1B receptor obtained from Wistar Rat liver (Garcia-S'ainz, J. et al, Biochem. Biophys. Res. Commun. 186:760, 1992; Michel, A. et al, Br. J. Pharmacol. 98:883, 1989) in a modified Tris-HCl buffer (50 mM Tris-HCl buffer, pH 7.4, 0.5 mM EDTA) was used. Compounds of the invention were incubated with 0.25 nM [^3H]Prazosin for 60 min at 25° C. Non-specific binding was estimated in the presence of 10 μM phentolamine. Receptor proteins were filtered and washed, the filters were then counted to determine [^3H]Prazosin specifically bound. […] Compounds of the invention were tested in this biochemical assay and percent inhibition of specific binding was determined. Biochemical assay results are presented as the percent inhibition of specific binding in Table B1.

CC(C)(O)CCN1CCc2c(c3cc(Cl)ccc3n2CC(O)c2ccncc2)C1 (single isomer, unassigned) [11a, 4-[8-chloro-5-(2-hydroxy-2-pyridin-4-yl-ethyl)-1,3,4,5-tetrahydro-pyrido[4,3-b]indol-2-yl]-2-methyl-butan-2-ol]
Percentage inhibition of ligand binding, Adrenergic α2B [1]: 28%
Percentage inhibition of ligand binding, Adrenergic α2A ([2]; 0.1 µM): −6%
inhibition at 0.1 µM [3]: 16%

CC(C)(O)CCN1CCc2c(c3cc(Cl)ccc3n2CC(O)c2ccncc2)C1 (single isomer, unassigned) [11b, 4-[8-chloro-5-(2-hydroxy-2-pyridin-4-yl-ethyl)-1,3,4,5-tetrahydro-pyrido[4,3-b]indol-2-yl]-2-methyl-butan-2-ol]
Percentage inhibition of ligand binding, Adrenergic α2B [1]: 64%
Percentage inhibition of ligand binding, Adrenergic α2A ([2]; 0.1 µM): 13%
Percentage inhibition of ligand binding, Adrenergic α1B [3]: 18%

CC(O)(Cn1c2c(c3cc(Cl)cnc31)CNCC2)c1ccncc1 (single isomer, unassigned) [12a, 1-(3-chloro-5,6,7,8-tetrahydro-1,6,9-triaza-fluoren-9-yl)-2-pyridin-4-yl-propan-2-ol]
inhibition at 0.03 µM [1]: 24%
inhibition at 0.1 µM [2]: 3%
Percentage inhibition of ligand binding, Adrenergic α1B [3]: 23%

CC(O)(Cn1c2c(c3cc(Cl)cnc31)CNCC2)c1ccncc1 (single isomer, unassigned) [12b, 1-(3-chloro-5,6,7,8-tetrahydro-1,6,9-triaza-fluoren-9-yl)-2-pyridin-4-yl-propan-2-ol]
Percentage inhibition of ligand binding, Adrenergic α2B [1]: 21%
Percentage inhibition of ligand binding, Adrenergic α2A [2]: 3%
Percentage inhibition of ligand binding, Adrenergic α1B [3]: 8%

Cc1ccc2c(c1)c1c(n2CC(O)c2ccncc2)CCN(C)CC1 (single isomer, unassigned) [13a, 2-(3,9-dimethyl-2,3,4,5-tetrahydroazepino[4,5-b]indol-6(1H)-yl)-1-(pyridin-4-yl)ethanol]
Percentage inhibition of ligand binding, Adrenergic α2B [1]: 37%
Percentage inhibition of ligand binding, Adrenergic α2A ([2]; 0.1 µM): −2%
Percentage inhibition of ligand binding, Adrenergic α1B [3]: 75%

Cc1ccc2c(c1)c1c(n2CC(C)(O)c2cccnc2)CN(C)CC1 (single isomer, unassigned) [14a, 1-(2,6-dimethyl-1,2,3,4-tetrahydro-β-carbolin-9-yl)-2-pyridin-3-yl-propan-2-ol]
Percentage inhibition of ligand binding, Adrenergic α2B [1]: 98%
inhibition at 0.03 µM [1]: 97%
Ki [1]: 1.92 nM
Ki [2]: 123 nM
inhibition at 0.03 µM [3]: 17%
Percentage inhibition of ligand binding, Adrenergic α1B [3]: 44%
inhibition at 0.1 µM [3]: 43%

CN1CCc2c(n(CC(O)c3ccncc3)c3ccc(Cl)cc23)CC1 (single isomer, unassigned) [15a, 2-(9-chloro-3-methyl-2,3,4,5-tetrahydroazepino[4,5-b]indol-6(1H)-yl)-1-(pyridin-4-yl)ethanol]
Percentage inhibition of ligand binding, Adrenergic α2B [1]: 65%
Percentage inhibition of ligand binding, Adrenergic α2A ([2]; 0.1 µM): 6%
Percentage inhibition of ligand binding, Adrenergic α1B [3]: 81%

CN1CCc2c(n(CC(O)c3ccncc3)c3ccc(Cl)cc23)CC1 (single isomer, unassigned) [15b, 2-(9-chloro-3-methyl-2,3,4,5-tetrahydroazepino[4,5-b]indol-6(1H)-yl)-1-(pyridin-4-yl)ethanol]
inhibition at 0.03 µM [1]: 103%
Ki [1]: 0.64 nM
Ki [2]: 112 nM
Percentage inhibition of ligand binding, Adrenergic α2A ([2]; 0.1 µM): 24%
inhibition at 0.1 µM [2]: 21%
inhibition at 0.03 µM [3]: 73%
Percentage inhibition of ligand binding, Adrenergic α1B [3]: 93%
inhibition at 0.1 µM [3]: 89%

Cc1ccc2c(c1)c1c(n2CC(C)(O)c2ccccn2)CN(C)CC1 (single isomer, unassigned) [16a, 1-(2,6-dimethyl-1,2,3,4-tetrahydro-β-carbolin-9-yl)-2-pyridin-2-yl-propan-2-ol]
Percentage inhibition of ligand binding, Adrenergic α2B [1]: 33%
Percentage inhibition of ligand binding, Adrenergic α2A ([2]; 0.1 µM): 9%
Percentage inhibition of ligand binding, Adrenergic α1B [3]: 47%
